Measurements reported in patent publication US6894068B2, “Substituted benzimidazoles as non-nucleoside inhibitors of reverse transcriptase” (The United States of America as represented by the …, priority 1997, dated 2005).
“Also recorded” adds a separate entry of the source. Like-named read-outs stand apart in the source and are kept apart here.

Experiments:
[1] = system: HIV-1 WT virus (NL4-3); experiment: microbe, parasite or virus in culture; assay type: cell-based; settings: Human immunodeficiency virus 1, NL43, CEM-SS, read-out: EC50
Procedure, shortened: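 CEM-SS cells (5×10^3/well) infected with HIV-1 NL4-3 at MOI giving complete killing by day 6 (e.g., 0.01-0.05), with half-log compound dilutions in triplicate. After six days at 37° C., viability measured by XTT reduction at 450 nm; CIC50 is 50% inhibitory concentration of cytopathic killing.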

[2] = system: HIV-1 isolate A98G; experiment: Cytopathic cell killing assay, MT-4 cells, isolate A98G; assay type: cell-based; settings: Human immunodeficiency virus 1, MT4, read-out: EC50, isolate A98G, Table 8; MT-4 cells
Source text: (§1) The various HIV isolates tested in the Figures are those corresponding to wild-type virus (NL4-3) and the other strains listed by their RT mutations. The three 4×AZT isolates included in the Figures represent AZT drug-resistant variants. For example, the 4×AZT/L100I isolate has five mutations: four mutations confer increased resistance to AZT, and the other mutation is located within the NNRTI binding pocket. TZB and nevir. (nevirapine) are two well-known NNRTIs, included in this experiment for comparison purposes.
(§2) In this Example, the antiviral and cellular toxicity of NNRTIs was investigated, using the cytopathic cell killing assay described by Yang (Yang et al., “Characteristics of a Group of Non-nucleoside Reverse Transcriptase Inhibitors with Structural Diversity and Potent Anti-Human Immunodeficiency Virus Activity,” Leukemia 9:S75-S85 [1995]). Briefly, in this method cells (e.g., the CEM-SS cell line, available from the NIAID AIDS Research and Reference Program [ARRRP]) were seeded at a density of 5×10^3 cells/well, into the wells of a 96-well microtiter plate. The cells were then infected with HIV virus (either mutant or WT), at a multiplicity of infection (MOI) previously determined to provide complete cell killing by 6 days of culture post-infection (e.g., MOI of 0.01-0.05). Each of the HIV isolates was pre-titered to induce equivalent levels of infection based on cell killing or virus production, prior to their use in these assays. A range of test compound concentrations was added to the wells in triplicate (e.g., serial half-log dilutions) to evaluate inhibition of HIV infection. Controls for each assay included drug controls (drug colorimetric control wells), drug cytotoxicity control wells (cells with drug), virus control wells (cells with virus), and cell viability controls (cells only). Positive control drugs (e.g. AZT and ddC) were also run in parallel.
(§3) After six days of incubation at 37° C., cell viability was determined spectrophotometrically at 450 nm for each well, using the metabolic reduction of XTT to a soluble colored formazan. (See, Gartner and Popovic, “Virus Isolation and Production, in Aldovini and Walker (eds.), Techniques in HIV Research, Stockton Press, NY, pp. […] [1991]; and Nara and Fischinger, “Quantitative Infectivity Assay for HIV-1 and HIV-2, ” Nature 332:469-470 [1988]).
(§4) The in vitro therapeutic index (TI50) was defined as the fold-difference between the EC50 and IC50. The results for the various compounds are included in FIGS. 8 and 19.

[3] = system: HIV-1 isolate L100I; experiment: Cytopathic cell killing assay, MT-4 cells, isolate L100I; assay type: cell-based
Source text: as §1, §2, §3, §4

[4] = system: HIV-1 isolate K101E; experiment: Cytopathic cell killing assay, MT-4 cells, isolate K101E; assay type: cell-based
Source text: as §1, §2, §3, §4

[5] = system: HIV-1 isolate K103N; experiment: Cytopathic cell killing assay, MT-4 cells, isolate K103N; assay type: cell-based; settings: for activity against K103N, result in words: cytopathic cell killing assay
Source text: as §1, §2, §3, §4

[6] = system: HIV-1 isolate V108I; experiment: Cytopathic cell killing assay, MT-4 cells, isolate V108I; assay type: cell-based
Source text: as §1, §2, §3, §4

[7] = system: HIV-1 isolate Y181C; experiment: Cytopathic cell killing assay, MT-4 cells, isolate Y181C; assay type: cell-based
Source text: as §1, §2, §3, §4

[8] = system: HIV-1 isolate 4xAZT (AZT drug-resistant variant); experiment: Cytopathic cell killing assay, MT-4 cells, isolate 4xAZT; assay type: cell-based; settings: Human immunodeficiency virus 1, MT4, read-out: EC50, isolate 4XAZT
Source text: as §1
(§5) In this Example, the antiviral and cellular toxicity of NNRTIs was investigated, using the cytopathic cell killing assay described by Yang (Yang et al., “Characteristics of a Group of Non-nucleoside Reverse Transcriptase Inhibitors with Structural Diversity and Potent Anti-Human Immunodeficiency Virus Activity,” Leukemia 9:S75-S85 [1995]). Briefly, in this method cells (e.g., the CEM-SS cell line, available from the NIAID AIDS Research and Reference Program [ARRRP]) were seeded at a density of 5×10^3 cells/well, into the wells of a 96-well microtiter plate. The cells were then infected with HIV virus (either mutant or WT), at a multiplicity of infection (MOI) previously determined to provide complete cell killing by 6 days of culture post-infection (e.g., MOI of 0.01-0.05). Each of the HIV isolates was pre-titered to induce equivalent levels of infection based on cell killing or virus production, prior to their use in these assays. A range of test compound concentrations was added to the wells in triplicate (e.g., serial half-log dilutions) to evaluate inhibition of HIV infection. […]
(§6) After six days of incubation at 37° C., cell viability was determined spectrophotometrically at 450 nm for each well, using the metabolic reduction of XTT to a soluble colored formazan. (See, Gartner and Popovic, “Virus Isolation and Production, in Aldovini and Walker (eds.), Techniques in HIV Research, Stockton Press, NY, pp. […] [1991]; and Nara and Fischinger, “Quantitative Infectivity Assay for HIV-1 and HIV-2, ” Nature 332:469-470 [1988]). […]

[9] = system: HIV-1 isolate M184I; experiment: Cytopathic cell killing assay, isolate M184I; assay type: cell-based; settings: Human immunodeficiency virus 1, read-out: EC50, isolate M184I
Source text: as §1, §5, §6

[10] = system: HIV-1 isolate Y188H; experiment: Cytopathic cell killing assay, isolate Y188H; assay type: cell-based; settings: Human immunodeficiency virus 1, read-out: EC50, isolate Y188H
Source text: as §1, §2, §3, §4

[11] = system: WT and HIV-1 variants containing amino acid substitutions in RT; assay type: cell-based; settings: cytopathic cell killing assay, NNRTI-resistant HIV isolates
Source text: In these Tables, antiviral data are reported as the quantity of drug in μM required to reduce cell killing or virus production by 50% (EC50). The various HIV isolates tested in the Figures are those corresponding to wild-type virus (NL4-3) and the other strains listed by their RT mutations. The three 4×AZT isolates included in the Figures represent AZT drug-resistant variants.
(§7) Briefly, in this method cells (e.g., the CEM-SS cell line, available from the NIAID AIDS Research and Reference Program [ARRRP]) were seeded at a density of 5×10^3 cells/well, into the wells of a 96-well microtiter plate. The cells were then infected with HIV virus (either mutant or WT), at a multiplicity of infection (MOI) previously determined to provide complete cell killing by 6 days of culture post-infection (e.g., MOI of 0.01-0.05). Each of the HIV isolates was pre-titered to induce equivalent levels of infection based on cell killing or virus production, prior to their use in these assays. A range of test compound concentrations was added to the wells in triplicate (e.g., serial half-log dilutions) to evaluate inhibition of HIV infection. Controls for each assay included drug controls (drug colorimetric control wells), drug cytotoxicity control wells (cells with drug), virus control wells (cells with virus), and cell viability controls (cells only). Positive control drugs (e.g. AZT and ddC) were also run in parallel.
as §3
Antiviral and toxicity data were reported as the quantity of drug required to inhibit 50% of virus-induced cell killing or virus production (EC50), and the quantity of drug required to […] (IC50). The in vitro therapeutic index (TI50) was defined as the fold-difference between the EC50 and IC50.

[12] = molecular target: HIV-1 WT RT (Human immunodeficiency virus type 1 group M subtype B, UniProt P03366); experiment: biochemical; assay type: biochemical
[13] = system: HIV-1 NL4-3 (WT); experiment: Cytopathic cell killing assay, MT-4 cells, isolate NL4-3 (WT); assay type: cell-based
Source text: as §1, §2, §3, §4

[14] = system: HIV-1 isolate L74V; experiment: Cytopathic cell killing assay, MT-4 cells, isolate L74V; assay type: cell-based; settings: MT-4 cells
Source text: as §1, §2, §3, §4

[15] = system: HIV-1 isolate V106A; experiment: Cytopathic cell killing assay, MT-4 cells, isolate V106A; assay type: cell-based; settings: Human immunodeficiency virus 1, MT4, read-out: EC50, isolate V106A, Table 8; MT-4 cells
Source text: as §1, §5, §6

[16] = system: HIV-1 isolate V179D; experiment: Cytopathic cell killing assay, MT-4 cells, isolate V179D; assay type: cell-based; settings: Human immunodeficiency virus 1, MT4, read-out: EC50, isolate V179D, Table 8; MT-4 cells
Source text: as §1, §2, §3, §4

[17] = system: HIV-1 isolate Y188C; experiment: Cytopathic cell killing assay, MT-4 cells, isolate Y188C; assay type: cell-based; settings: MT-4 cells
Source text: as §1, §2, §3, §4

[18] = system: HIV-1 isolate 4xAZT/L100I; experiment: Cytopathic cell killing assay, MT-4 cells, isolate 4xAZT/L100I; assay type: cell-based; settings: read-out: EC50, isolate 4XAZT/L1001; Table 9; MT-4 cells
Procedure: The various HIV isolates tested in the Figures are those corresponding to wild-type virus (NL4-3) and the other strains listed by their RT mutations. The three 4×AZT isolates included in the Figures represent AZT drug-resistant variants.
as §7, §3
The in vitro therapeutic index (TI50) was defined as the fold-difference between the EC50 and IC50.

[19] = Table 7, drug concentration required to reduce cell killing or virus production by 50%, WT
[20] = Human immunodeficiency virus 1, MT4, read-out: EC50, isolate L100I, Table 10, values in μM
[21] = Human immunodeficiency virus 1, MT4, read-out: EC50, isolate Y181C, Table 10, values in μM

COc1cccc2c1nc(-c1c(F)cccc1F)n2Cc1c(F)cccc1F [Compound 5006, 1-(2,6-difluorobenzyl)-2-(2,6-difluorophenyl)-4-methoxylbenzimidazole]
EC50 [1, 19]: 0.0046 µM | EC50 ([1]; Table 11, CEMSS/NL4-3, NRVC = no reduction in viral CPE): 0.06 µM | EC50 ([1]; text b130, cytopathic cell killing assay, WT): 0.0046 µM | EC50 [2]: 0.3 µM | EC50 [3, 20]: 0.16 µM | EC50 ([4]; Human immunodeficiency virus 1, MT4, read-out: EC50, isolate K101E, Table 10, values in μM): 2.82 µM | activity against K103N, result in words [5]: failed to show any activity | EC50 ([6]; Human immunodeficiency virus 1, MT4, read-out: EC50, isolate V108I, Table 10, values in μM): 2.82 µM | EC50 [7, 21]: 0.26 µM | activity against Y181C, result in words ([7]; cytopathic cell killing assay): maintaining activity | EC50 [8]: 0.6 µM | EC50 [9]: 0.16 µM | EC50 [10]: 0.26 µM | cross-resistance profile, result in words [11]: inhibit HIV-1 better than TZB; also recorded: equal or better against the various variants than nevirapine | cross-resistance profile, result in words ([11]; listed as 44): retained the best activity against the different RT variants; also recorded: retains activity comparable with nevirapine | melting point: 154 to 155 °C

CC(=O)Nc1cccc2c1nc(-c1c(F)cccc1F)n2Cc1c(F)cccc1F [Compound 3600, 1-(2,6-difluorobenzyl)-2-(2,6-difluorophenyl)-4-acetamidobenzimidazole]
IC50 [12]: 54.7 µM | inhibition at 1 µM ([12]; Table 7, 1 μM drug, WT HIV-1 RT, read-out: % inhibn (1 μM)): 24% | EC50 [1, 19]: 1.48 µM | EC50 ([13]; Human immunodeficiency virus 1, NL43, MT4, Table 8, MT-4 cells, read-out: EC50, isolate NL4-3): 1.6 µM | EC50 ([13]; Human immunodeficiency virus 1, NL43, MT4, Table 10, values in μM, read-out: EC50, isolate NL4-3 (WT)): 1.97 µM | EC50 ([14]; Human immunodeficiency virus 1, MT4, read-out: EC50, isolate L74V, Table 8): 1.2 µM | EC50 [2]: 4.3 µM | EC50 [3, 20]: 3.25 µM | EC50 ([3]; Human immunodeficiency virus 1, MT4, read-out: EC50, isolate L1001, Table 8, MT-4 cells): 2.1 µM | EC50 ([4]; Human immunodeficiency virus 1, MT4, read-out: EC50, isolate K101E, Table 8, MT-4 cells): > 20 µM | EC50 ([5]; Human immunodeficiency virus 1, MT4, read-out: EC50, isolate K103N, Table 8, MT-4 cells): > 20 µM | EC50 ([5]; Human immunodeficiency virus 1, MT4, read-out: EC50, isolate K103N, Table 10, values in μM): > 100 µM | EC50 [15]: > 20 µM | EC50 ([6]; Human immunodeficiency virus 1, MT4, read-out: EC50, isolate V1081, Table 8, MT-4 cells): 5.3 µM | EC50 [16]: 1.7 µM | EC50 ([7]; Human immunodeficiency virus 1, MT4, read-out: EC50, isolate Y181C, Table 8, MT-4 cells): > 10 µM | EC50 [7, 21]: > 100 µM | EC50 ([17]; Human immunodeficiency virus 1, MT4, read-out: EC50, isolate Y188C, Table 8): > 10 µM | cross-resistance profile, result in words [11]: inhibit HIV-1 better than TZB | melting point: 194 to 195 °C

Fc1cccc(F)c1C1SCc2nc3ccccc3n21 (centres unmarked) [TZB, 1-(2,6-difluorophenyl)-1H,3H-thiazolo[3,4-a]benzimidazole, reference compound]
EC50 ([13]; Human immunodeficiency virus 1, NL43, MT4, read-out: EC50, isolate NL4-3, Table 9, MT-4 cells): 1 µM | EC50 ([14]; Human immunodeficiency virus 1, MT4, read-out: EC50, isolate L74V, Table 9): 0.8 µM | activity against K103N, result in words [5]: ineffective | EC50 ([17]; Human immunodeficiency virus 1, MT4, read-out: EC50, isolate Y188C, Table 9): > 20 µM | EC50 [18]: 1.1 µM
